Here are results for 19 compounds from patent US20240043435A1, “TYK-2 INHIBITOR” (BEIGENE, LTD., priority 2020, published 2024).

The target of experiment [1] is T1, TYK2-JH2 (aa 575-869, in-house) protein (Homo sapiens, UniProt P29597).
T1 construct: TYK2-JH2 (aa 575-869, in-house) protein; made in house
The experiment can be described thus: TYK2-JH2 biochemical assay (HTRF probe displacement). It is filed as binding. The conditions noted are these: for Selectivity fold (TYK2/JAK1) / IC50: Biochemical assay; for Selectivity fold (TYK2/JAK1): JAK1-JH2 IC50 vs TYK2-JH2 IC50; for IC50: read-out: TYK2-JH2 IC50; for fold less potent (orth vs meta methylsulfonyl; B15 vs B1, B14 vs B5): Tyk2 JH2 bio-chemical potency. The method, boiled down: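 Recombinant TYK2-JH2 (0.2 nM) was pre-incubated 0.5 h at room temperature with compounds (10 doses, 5-fold dilution; 500× DMSO stocks from 500 uM) in 20 mM HEPES pH 7.5, 10 mM MgCl2, 0.005% BSA, 2 mM DTT, 0.015% Brij-35. Probe displacement was read by HTRF (ex337, em620/665 nm); IC50 from four-parameter logistic fit.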
(In general: In TR-FRET formats the signal depends on donor and acceptor labels being close together.)

The target in experiment [2] is T2, JAK1-JH2 protein (aa 561-860, in-house) (Homo sapiens, UniProt P23458).
T2 construct: JAK1-JH2 protein (aa 561-860, in-house); made in house
The experiment can be described thus: JAK1-JH2 biochemical assay (HTRF probe displacement). The format is binding. As for the experimental part: Assay B: JAK1-JH2 Biochemical Assay
Compounds disclosed herein were tested for blocking of JAK1-JH2 protein (aa 561-860, in-house) with its probe in an assay based on Homogeneous Time Resolved Fluorescence. Compound dilution is done according to the following protocol: (1) Prepare 500× compounds solution in DMSO from 500 uM by 5-fold dilution, total 10 doses were included; (2) Prepare 10× compounds solution in an assay buffer containing 20 mM HEPES, pH 7.5, 10 mM MgCl2, 0.005% BSA, 2 mM DTT, 0.015% Brij-35 by transferring 1 μl serial 500× stock solution into 49 μl assay buffer. 4 μL of 1.17 nM recombinant JAK1-JH2 protein was pre-incubated with 1 μl of 10× serial dilution of compounds at room temperature for 0.5 hour. […] The HTRF signals (ex337 nm, em620 nm/665 nm) were read on BMG PHERAstar FS instrument. The inhibition percentage of JAK1 interaction with its probe in presence of increasing concentrations of compounds was calculated based on the ratio of fluorescence at 615 nm to that at 665 nm. The IC50 for each compound was derived from fitting the data to the four-parameter logistic equation by Dotmatics.

A further experiment has as its system pSTAT5/GM-CSF. Kind of experiment: pSTAT5/GM-CSF cellular assay (JAK2 selectivity). The format is cell-based.
Experiment [3] deals with JAK2, TYK2/p-STAT4 (Tyr693) activated by IL-12 in NK-92 cell line. Kind of experiment: IL-12-JAK2, TYK2/p-STAT4 (Tyr693) inhibition IC50 cellular assay. It is filed as cell-based. The note with it: for Selectivity fold (TYK2/JAK2): Cellular assay, pSTAT5/GM-CSF IC50 vs pSTAT4/IL-12 IC50; for IC50: NK92, Cellular assay, read-out: pSTAT4/IL-12 IC50. The procedure, abridged: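 NK-92 cells were starved overnight without IL-2 and preincubated 1 h at 37° C with compound (8 doses, 10000–0.61 nM, 4-fold, 0.2% DMSO). They were then stimulated with IL-12 (40 ng/ml final) for 30 min. Lysate p-STAT4 (Tyr693) was read by AlphaLISA SureFire; IC50 from four-parameter logistic fit.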

[4] abbreviates: pSTAT5/GM-CSF IC50 over pSTAT4/IL-12 IC50.

T1 sequence (P29597 575-869): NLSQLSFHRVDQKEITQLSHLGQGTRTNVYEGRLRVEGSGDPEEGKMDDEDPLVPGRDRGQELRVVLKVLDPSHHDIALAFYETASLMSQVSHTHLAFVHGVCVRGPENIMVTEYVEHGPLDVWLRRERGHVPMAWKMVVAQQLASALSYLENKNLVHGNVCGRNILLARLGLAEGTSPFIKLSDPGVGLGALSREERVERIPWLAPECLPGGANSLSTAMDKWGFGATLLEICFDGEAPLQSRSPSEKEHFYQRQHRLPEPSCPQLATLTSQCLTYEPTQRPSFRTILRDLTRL
T2 sequence (P23458 561-860): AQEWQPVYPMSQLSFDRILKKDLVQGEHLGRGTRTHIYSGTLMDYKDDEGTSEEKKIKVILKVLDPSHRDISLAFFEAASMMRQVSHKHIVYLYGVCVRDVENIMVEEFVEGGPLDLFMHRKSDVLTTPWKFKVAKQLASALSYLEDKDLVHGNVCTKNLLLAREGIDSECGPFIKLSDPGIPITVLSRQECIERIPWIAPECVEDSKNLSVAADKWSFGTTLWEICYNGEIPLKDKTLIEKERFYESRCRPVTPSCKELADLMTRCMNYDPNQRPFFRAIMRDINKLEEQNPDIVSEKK

Consider `CS(=O)(=O)c1cccc(Nc2cc(N)ncc2-c2ccccn2)c1` [Example B19, N4′-(3-(methylsulfonyl)phenyl)-[2,3′-bipyridine]-4′,6′-diamine], for which the “Selectivity fold (TYK2/JAK1)” value in experiment [1] is 14.2 fold. For the same compound, the values for the IC50 in experiment [1] and in experiment [2] were 18 nM and 257 nM, respectively.

In the case of `CS(=O)(=O)c1cccc(Nc2cc(NC(=O)C3CC3)ncc2-c2ccccn2)c1` [Example B20, N-(4′-((3-(methylsulfonyl)phenyl)amino)-[2,3′-bipyridin]-6′-yl)cyclopropanecarboxamide], in experiment [1], the “Selectivity fold (TYK2/JAK1)” value came out at 50 fold and the IC50 turned out to be 1.5 nM. For the same compound, the “Tyk2 inhibition potency on replacing R methyl (Example B1) by cyclopropane” value in experiment [1] (compared with Example B1) is given as “dramatically decreased”. The same compound had an IC50 in experiment [2] of 76 nM.

Consider `CC(=O)Nc1cc(Nc2cccc(S(C)(=O)=O)c2)c(-c2cc(C)nc(C)n2)cn1` [Example A6, N-(5-(2,6-dimethylpyrimidin-4-yl)-4-((3-(methylsulfonyl)phenyl)amino)pyridin-2-yl)acetamide], for which the “Selectivity fold (TYK2/JAK1)” value in experiment [1] was 128 fold. The IC50 was 0.14 nM in experiment [1], over 10000 nM in the experiment on pSTAT5/GM-CSF, 18 nM in experiment [2] and 51 nM in experiment [3]. For the same compound, the “Selectivity fold (TYK2/JAK2)” value in experiment [3] is listed as over 196 fold.

As to `CC(=O)Nc1cc(Nc2ncccc2S(C)(=O)=O)c(-c2ccccn2)cn1` [Example B14, N-(4′-((3-(methylsulfonyl)pyridin-2-yl)amino)-[2,3′-bipyridin]-6′-yl)acetamide], in experiment [1], the “Selectivity fold (TYK2/JAK1)” value is listed as 1 fold; the IC50 is 80 nM; the “fold less potent (orth vs meta methylsulfonyl; B15 vs B1, B14 vs B5)” value was 5000 fold. The same compound displayed an IC50 in experiment [2] of 145 nM.

For `CC(=O)Nc1cc(Nc2cccc(S(C)(=O)=O)c2)c(-c2ccc(N3CCOCC3=O)cn2)cn1` [Example G1, N-(4′-((3-(methylsulfonyl)phenyl)amino)-5-(3-oxomorpholino)-[2,3′-bipyridin]-6′-yl)acetamide], the IC50 is 0.026 nM in experiment [1], over 10000 nM in the experiment on pSTAT5/GM-CSF, 4.9 nM in experiment [2] and 14.4 nM in experiment [3]. Further, the “Selectivity fold (TYK2/JAK2)” value in the experiment with pSTAT5/GM-CSF (pSTAT5/GM-CSF vs pSTAT4/IL-12) is given as over 694 fold. Moreover, the “Selectivity fold (TYK2/JAK1)” value in experiment [2] (JAK1-JH2 vs TYK2-JH2) stood at 188 fold.

With `CC(=O)Nc1cc(Nc2cccc(S(C)(=O)=O)c2)c(N2CCCC2=O)cn1` [Example A7, N-(4-((3-(methylsulfonyl)phenyl)amino)-5-(2-oxopyrrolidin-1-yl)pyridin-2-yl)acetamide], in experiment [1], the “Selectivity fold (TYK2/JAK1)” value is over 14 fold and the IC50 was 670 nM. In experiment [2], the IC50 is over 10000 nM.

For the compound `CC(=O)Nc1cc(Nc2cccc(S(C)(=O)=O)c2)c(-c2cnccn2)cn1` [Example A5, N-(4-((3-(methylsulfonyl)phenyl)amino)-5-(pyrazin-2-yl)pyridin-2-yl)acetamide], the “Selectivity fold (TYK2/JAK1)” value in experiment [1] came out at 120 fold. The IC50 in experiment [1] stood at 0.49 nM; in experiment [2], 59 nM.

For the compound `CC(=O)Nc1cc(Nc2cccc(S(C)(=O)=O)c2)c(C2CCCO2)cn1` (centres unmarked) [Example A2, N-[4-[(3-methanesulfonylphenyl)amino]-5-(oxolan-2-yl)pyridin-2-yl]acetamide], in experiment [1], the “Selectivity fold (TYK2/JAK1)” value worked out at 159 fold and the IC50 was determined as 5.2 nM. This compound also returned an IC50 in experiment [2] of 828 nM.

As to `CC(=O)Nc1cc(Nc2cccc(S(C)(=O)=O)c2)c(-c2cnc(C)cn2)cn1` [Example A4, N-(5-(5-methylpyrazin-2-yl)-4-((3-(methylsulfonyl)phenyl)amino)pyridin-2-yl)acetamide], in experiment [1], the “Selectivity fold (TYK2/JAK1)” value stood at 113 fold and the IC50 came to 0.52 nM. In addition, the IC50 in experiment [2] is 59 nM.

Take `CC(=O)Nc1cc(Nc2ccccc2)c(-c2ccccn2)cn1` [Example B3, N-(4′-(phenylamino)-[2,3′-bipyridin]-6′-yl)acetamide]: in experiment [1], the “Selectivity fold (TYK2/JAK1)” value is listed as 8.1 fold and the IC50 stood at 1.1 nM. The same compound registered an IC50 in experiment [2] of 9 nM.

In the case of `CC(=O)Nc1cc(Nc2cc(OCCO)cc(S(C)(=O)=O)n2)c(-c2ccc(C(C)(C)O)cn2)cn1` [Example H8, N-(4′-((4-(2-hydroxyethoxy)-6-(methylsulfonyl)pyridin-2-yl)amino)-5-(2-hydroxypropan-2-yl)-[2,3′-bipyridin]-6′-yl)acetamide], the IC50 in experiment [1] is 0.041 nM; with pSTAT5/GM-CSF, over 10000 nM; in experiment [3], 21.7 nM. For the same compound, in experiment [3], the “Selectivity fold (TYK2/JAK2)” value is recorded as over 461 fold.

Consider `CC(=O)Nc1cc(Nc2cccc(S(N)(=O)=O)n2)c(-c2ccccn2)cn1` [Example B4, N-(4′-((6-sulfamoylpyridin-2-yl)amino)-[2,3′-bipyridin]-6′-yl)acetamide], for which the IC50 in experiment [1] is 0.019 nM; with pSTAT5/GM-CSF it was over 10000 nM; in experiment [3] it was 2.53 nM. Besides, the “Selectivity fold (TYK2/JAK2)” value in experiment [3] is over 3952 fold.

For `CC(=O)Nc1cc(Nc2cc(OC(C)C)cc(S(C)(=O)=O)c2)c(-c2ccc(C(C)(C)O)cn2)cn1` [Example H24, N-(5-(2-hydroxypropan-2-yl)-4′-((3-isopropoxy-5-(methylsulfonyl)phenyl)amino)-[2,3′-bipyridin]-6′-yl)acetamide], the IC50 in experiment [1] is 0.034 nM; with pSTAT5/GM-CSF, over 10000 nM; in experiment [3] it was 5.39 nM. Besides, the “Selectivity fold (TYK2/JAK2)” value in experiment [3] is over 1855 fold.

Consider `CC(=O)Nc1cc(Nc2cc(OCCO)cc(S(C)(=O)=O)c2)c(-c2ccn(C)n2)cn1` [Example J56, N-(4-((3-(2-hydroxyethoxy)-5-(methylsulfonyl)phenyl)amino)-5-(1-methyl-1H-pyrazol-3-yl)pyridin-2-yl)acetamide], for which the IC50 in experiment [1] was 0.044 nM; with pSTAT5/GM-CSF it was over 10000 nM; in experiment [3], 30.1 nM. The “Selectivity fold (TYK2/JAK2)” value in the experiment with pSTAT5/GM-CSF (setting [4]) was over 332 fold.

Take `CC(=O)Nc1cc(Nc2cc(C#N)cc(S(C)(=O)=O)c2)c(-c2ccn(C)n2)cn1` [Example J7, N-(4-((3-cyano-5-(methylsulfonyl)phenyl)amino)-5-(1-methyl-1H-pyrazol-3-yl)pyridin-2-yl)acetamide]: the figures for the IC50 (in experiment [1]; in the experiment on pSTAT5/GM-CSF; in experiment [3]) were 0.19 nM, over 10000 nM and 66.2 nM, respectively. Further, the “Selectivity fold (TYK2/JAK2)” value in the experiment with pSTAT5/GM-CSF (setting [4]) is over 150 fold.

As to `COC1CN(c2cc(Nc3cc(NC(C)=O)ncc3-c3ccc(N4C[C@@H](C)O[C@@H](C)C4)cn3)nc(S(C)(=O)=O)c2)C1` [Example C25, N-(5-(cis-2,6-dimethyl-morpholino)-4′-((4-(3-methoxy-azetidin-1-yl)-6-(methylsulfonyl)pyridin-2-yl)amino)-[2,3′-bipyridin]-6′-yl)acetamide], the results for the IC50 (in experiment [1]; with pSTAT5/GM-CSF; in experiment [3]) were 0.037 nM, 1060 nM and 0.827 nM, respectively. For the same compound, the “Selectivity fold (TYK2/JAK2)” value in experiment [3] is 1288 fold.

In the case of `CC(=O)Nc1cc(Nc2ccccc2S(C)(=O)=O)c(-c2ccccn2)cn1` [Example B15, N-(4′-((2-(methylsulfonyl)phenyl)amino)-[2,3′-bipyridin]-6′-yl)acetamide], in experiment [1], the “Selectivity fold (TYK2/JAK1)” value is 1 fold; the IC50 was 117 nM; the “fold less potent (orth vs meta methylsulfonyl; B15 vs B1, B14 vs B5)” value is recorded as 3079 fold. Also, in experiment [2], the IC50 was determined as 234 nM.

For `CC(=O)Nc1cc(Nc2cc(OCC#N)cc(S(C)(=O)=O)n2)c(-c2ccn(C)n2)cn1` [Example J20, N-(4-((4-(cyanomethoxy)-6-(methylsulfonyl)pyridin-2-yl)amino)-5-(1-methyl-1H-pyrazol-3-yl)pyridin-2-yl)acetamide], the IC50 in experiment [1] is 0.026 nM; in the experiment with pSTAT5/GM-CSF it was over 10000 nM; in experiment [3], 3 nM. Moreover, the “Selectivity fold (TYK2/JAK2)” value with pSTAT5/GM-CSF (setting [4]) is given as over 3333 fold.

In the case of `CCS(=O)(=O)c1cc(OC(C)C)cc(Nc2cc(NC(C)=O)ncc2-c2ccc(C(C)(C)O)cn2)n1` [Example H36, N-(4′-((6-(ethylsulfonyl)-4-isopropoxypyridin-2-yl)amino)-5-(2-hydroxypropan-2-yl)-[2,3′-bipyridin]-6′-yl)acetamide], the IC50 in experiment [1] was 0.022 nM; with pSTAT5/GM-CSF it was over 10000 nM; in experiment [3], 1.95 nM. Further, in experiment [3], the “Selectivity fold (TYK2/JAK2)” value is recorded as over 5128 fold.
